Read-outs that look alike come from different tables or passages of the source.
What was measured:
CCK receptor (pancreas) = biological target: T1, CCK receptor (pancreas) (Rattus norvegicus, UniProt P30551); test: biochemical; format: binding; details: rat pancreas membranes; for IC50: 50 pM 125I-CCK-8, 25°C 2 hours
T1 construct: The whole pancreas was dissected free of fat tissue and was homogenized; from tissue; host or cells: rat pancreas membrane homogenate
T1 sequence (P30551 1-444): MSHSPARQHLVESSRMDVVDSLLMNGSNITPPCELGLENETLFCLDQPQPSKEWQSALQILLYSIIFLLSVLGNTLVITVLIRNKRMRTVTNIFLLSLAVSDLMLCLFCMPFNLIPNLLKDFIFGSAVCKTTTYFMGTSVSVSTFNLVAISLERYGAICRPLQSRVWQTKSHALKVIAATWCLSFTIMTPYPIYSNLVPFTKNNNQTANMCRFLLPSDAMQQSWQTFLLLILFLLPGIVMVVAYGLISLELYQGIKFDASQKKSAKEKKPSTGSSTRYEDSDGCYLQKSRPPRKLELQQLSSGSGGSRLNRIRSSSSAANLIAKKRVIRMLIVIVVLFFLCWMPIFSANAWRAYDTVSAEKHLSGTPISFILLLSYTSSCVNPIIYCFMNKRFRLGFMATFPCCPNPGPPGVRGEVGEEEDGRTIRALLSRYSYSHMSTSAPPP
Protocol: CCK-8 sulphated was radiolabelled with ¹²⁵I-Bolton Hunter reagent (2000 Ci/mmole). Receptor binding was performed according to Chang and Lotti (Proc. Natl. Acad. Sci. 83, 4923-4926, 1986) with minor modifications.
Male Sprague-Dawley rats (150-200g) were sacrificed by decapitation. The whole pancreas was dissected free of fat tissue and was homogenized in 25 volumes of ice-cold 10 mM N-2-hydroxyethyl-piperazine-N′-2-ethane sulphonic acid (HEPES) buffer with 0.1% soya bean trypsin inhibitor (pH 7.4 at 25°C) with a Kinematica Polytron. The homogenates were centrifuged at 47,800 g for 10 min. Pellets were resuspended in 10 volumes of binding assay buffer (20mM (HEPES)), 1mM ethylene glycol-bis-(β-aminoethylether-N,N′-tetraacetic acid) (EGTA), 5mM MgCl₂, 150 mM NaCl, bacitracin 0.25 mg/ml, soya bean trypsin inhibitor 0.1 mg/ml, and bovine serum albumin 2 mg/ml pH 6.5 at 25°C) using a Teflon (trademark) homogenizer, 15 strokes at 500 rpm. The homogenate was further diluted in binding assay buffer to give a final concentration of 0.5 mg original wet weight/1 ml buffer. […] All assays were run in duplicate. The reaction mixtures were incubated at 25°C for 2 hours and the reaction terminated by rapid filtration (Brandell 24 well cell harvester) over Whatman GF/C filters, washing 3 x 4 mls with ice-cold 100 Mm NaCl. The radioactivity on the filters was counted with a LKB gamma counter.
(§1) Drug displacement studies were performed with at least 10 concentrations of compounds of Formula I and the IC₅₀ values were determined by regression analysis IC₅₀ refers to the concentration of the compound required to inhibit 50% of specific binding of ¹²⁵I-CCK-8.

Gastrin Receptor = biological target: T2, Gastrin Receptor (Cavia porcellus, UniProt H0VZC5); test: Gastrin Receptor Binding in Guinea Pig Gastric Glands, 125I-gastrin; design: from tissue; host or cells: isolated guinea pig gastric mucosal glands; details: 0.1 nM 125I-gastrin, 25°C 30 minutes
T2 sequence (H0VZC5 1-426): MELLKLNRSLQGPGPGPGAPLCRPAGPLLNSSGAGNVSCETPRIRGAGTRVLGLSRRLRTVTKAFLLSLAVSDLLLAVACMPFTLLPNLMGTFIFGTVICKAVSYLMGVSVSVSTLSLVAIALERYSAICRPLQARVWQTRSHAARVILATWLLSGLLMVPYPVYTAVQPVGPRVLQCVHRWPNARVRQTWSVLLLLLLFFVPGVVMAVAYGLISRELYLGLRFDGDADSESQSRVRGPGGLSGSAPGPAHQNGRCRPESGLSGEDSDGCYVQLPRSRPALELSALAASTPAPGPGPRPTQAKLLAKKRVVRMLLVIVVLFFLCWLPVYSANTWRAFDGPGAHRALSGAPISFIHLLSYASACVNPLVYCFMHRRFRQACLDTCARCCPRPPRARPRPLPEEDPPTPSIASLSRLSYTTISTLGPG
Protocol: Gastrin antagonist activity of compounds of Formula I was determined using the following assay.
Guinea pig gastric mucosal glands were prepared by the procedure of Chang et. al., Science, 230, 177-179 (1985) with slight modifications. […] The tissues were passed twice through a 5 ml syringe to liberate the gastric glands, and then filtered through Nitex (trademark) #202 gauge nylon mesh. The filtered glands were centrifuged at 272 g for 5 minutes and washed twice by resuspension in 25 ml buffer and centrifugation.
The washed guinea pig gastric glands prepared as above were resuspended in 25 ml of standard buffer. For binding studies, to 250 µl of gastric glands, 30 µl of buffer (for total binding) or gastrin (3 µM final concentration, for nonspecific binding) or test compound and 20 µl of ¹²⁵I-gastrin (NEN, 2200 Ci/mmole, 0.1 nM final concentration) were added. All assays were run in triplicate. […] The reaction mixtures, after incubation at 25°C for 30 minutes in a shaking water bath were rapidly filtered (Brandell 24 well cell harvester) over Whatman G/F B filters presoaked in assay buffer and immediately washed further with 3 x 4 ml of 100 mM ice cold NaCl. The radioactivity on the filters was measured using a LKB gamma counter.

[1] = biological target: T3, CCK receptor (brain, cortex) (Cavia porcellus, UniProt H0VZC5); test: biochemical; format: binding, guinea pig
T3 construct: the cortex was removed and homogenized in 25 mL ice-cold 0.32 M sucrose; from tissue; host or cells: guinea pig brain cortex P2 membrane pellet
T3 sequence (H0VZC5 1-426): T2 sequence (H0VZC5 1-426)
Protocol: CCK-8 sulphated was radiolabelled and the binding was performed according to the description for the pancreas method with minor modifications.
Male Hartley guinea pigs (300-500g) were sacrificed by decapitation and the cortex was removed and homogenized in 25 mL ice-cold 0.32 M sucrose. The homogenates were centrifuged at 1000 g for 10 minutes and the resulting supernatant was recentrifuged at 20,000 g for 20 minutes. The P₂ pellet was resuspended in binding assay buffer (20mM HEPES, 5 mM MgCl₂, 0.25 mg/ml bacitracin, 1 mM EGTA pH 6.5 at 25°C), using a Teflon (trademark) homogenizer (5 strokes at 500 rpm) to give a final concentration of 10 mg original wet weight/1.2 ml buffer. […] All assays were run in duplicate. The reaction mixtures were incubated at 25°C for 2 hours and then the reaction was terminated by rapid filtration (Brandell 24 well cell harvester) on Whatman GF/C filters with 3 x 5 ml washes of cold 100 mM NaCl. The radioactivity on the filters was counted with a LKB gamma counter.
as §1

[2] = guinea pig cortex membranes, 50 pM 125I-CCK-8, 25°C 2 hours, read-out: IC50 ^125I-CCK Brain

Compound	IC50 (CCK receptor (pancreas))	IC50 (Gastrin Receptor)	IC50 [1]	IC50 [1, 2]	inhibition at 3 µM (CCK receptor (pancreas); at 3μM, read-out: inhibition of ^125I-CCK binding, Pancreas)
CC(=O)NS(=O)(=O)c1cccc(NC(=O)NC2N=C(C3CCCCC3)c3ccccc3N(C)C2=O)c1 (racemic) [Example 15, N-[3(R,S)-5-Cyclohexyl-2,3-dihydro-1-methyl-2-oxo-1H-1,4-benzodiazepin-3-yl] N′-[3-(methylcarbonylaminosulphonyl)phenyl] urea]	19.8 nM	1.06 nM	0.4 nM		
CN1C(=O)C(NC(=O)Nc2cccc(-c3nn[nH]n3)c2)N=C(C2CCCCC2)c2ccccc21 (racemic) [Example 4, N-[3(R,S)-5-Cyclohexyl-2,3-dihydro-1-methyl-2-oxo-1H-1,4-benzodiazepin-3-yl] N′-[3-tetrazol-5-ylphenyl]urea]	11 nM	0.44 nM		0.09 nM	
CN1C(=O)[C@H](NC(=O)Nc2cccc(C(=O)NS(=O)(=O)c3ccccc3)c2)N=C(C2CCCCC2)c2ccccc21 [Example 27, (-)-N-[3(R)-5-Cyclohexyl-2,3-dihydro-1-methyl-2-oxo-1H-1,4-benzodiazepin-3-yl] N′-[3-(phenylsulphonylaminocarbonyl)phenyl]urea]		1.34 nM	0.38 nM		19%
CCN1C(=O)C(NC(=O)Nc2cccc(S(=O)(=O)NC(C)=O)c2)N=C(C2CCCC2)c2ccccc21 (racemic) [Example 20, N-[3(R,S)-5-Cyclopentyl-2,3-dihydro-1-ethyl-2-oxo-1H-1,4-benzodiazepin-3-yl] N′-[3-(methylcarbonylaminosulphonyl)phenyl] urea]	953 nM	1.77 nM		1.4 nM	
N-(3(R,S)-5-Cyclopentyl-2,3-dihydro-1-methyl-2-oxo-1H-1,4-benzodiazepin-3-yl] N′-[3-(1,1-dimethylethylsulphonylaminocarbonyl)phenyl] urea [Example 39]	270 nM	1.18 nM		0.56 nM	
CN1C(=O)C(NC(=O)Nc2cccc(S(=O)(=O)NC(=O)C(F)(F)F)c2)N=C(C2CCCCC2)c2ccccc21 (racemic) [Example 17, N-[3(R,S)-5-Cyclohexyl-2,3-dihydro-1-methyl-2-oxo-1H-1,4-benzodiazepin-3-yl] N′-[3-(trifluoromethylcarbonylaminosulphonyl)phenyl] urea]	137 nM	10.5 nM		0.9 nM	
